From patent US10206955B2, “Compositions of ascorbic acid and bone morphogenetic protein 4 (BMP-4) for cell growth and uses related thereo” (EMORY UNIVERSITY, priority 2014, dated 2019)

Legend:
[1] = system: mouse tail-tip fibroblasts (MTTFs); assay: Spontaneous contraction of miRNA-transfected MTTFs after adding AA and BMP4; assay type: cell-based; conditions: AA and BMP4 added one day after miR-transfection; between 4-6 days
Method: (§1) To enhance the reprogramming potential of miRNAs, AA and BMP4 were added one day after miR-transfection (FIG. 1A). Between 4-6 days, spontaneously contracting cells appeared in groups treated with […], miR-208b-3p, or miR-499-5p, but not with miR-208a-3p and miR-208b-5p or all miRNA. The latter groups were excluded from further experiments. To further confirm the results, MTTFs were isolated from aMHC-GFP reporter mice (aMHC-GFP-MTTFs) and quantified GFP+ cells after treating with […], miR-208b-3p, or miR-499-5p in combination with AA and BMP4. […] TNNT2+ cells occupied 1.8±0.6% of MTTFs treated with miR-208b-3p, AA and BMP4 by flow cytometry analyses. This reprogramming rate is smaller than the number of aMHC-GFP+ cells because TNNT2 is a more specific and mature marker for CMs.
(§2) Mouse tail-tip fibroblasts (MTTFs) isolated from 1-4 month old transgenic mice carrying a GFP reporter driven by αMHC or human ubiquitin C (UBC) promoters were cultured in DMEM/F-12 (Invitrogen) containing 10% FBS (Atlanta Biologicals), 1% Glutamax (Invitrogen), 1% non-essential amino acids (Invitrogen) and 1% Antibiotic-Antimycotic (Invitrogen). αMHC-GFP transgenic mice were kindly given by Dr. Mark Sussman (San Diego State University) and UBC-GFP mice (C57BL/6-Tg(UBC-GFP)30Scha/J) were purchased from the Jackson Laboratory. After 3-5 passages, MTTFs were frozen until use. MTTFs at 70-80% of confluence were transfected with a synthetic miRNA mimic (20 nM), miR-1a-2-5p (Qiagen, MSY0017047, 5′-[…]-3′)(SEQ ID NO: 135), miR-208a-3p (Qiagen, MSY0000520, 5′-[…]-3′)(SEQ ID NO: 136), miR-208b-3p (Qiagen, MSY0004939, 5′-[…]-3′)(SEQ ID NO: 1), miR-208b-5p (Qiagen, MSY0017280, 5′-[…]-3′)(SEQ ID NO: 137), miR-499-5p (Qiagen, MSY0003482, 5′-[…]-3′) (SEQ ID NO: 3) or Scramble-miR (Dharmacon, CN-001000-01-05) using Lipofectamine 2000 (Invitrogen), and cultured in advanced DMEM/F12 (Invitrogen) containing 5% FBS (Atlanta Biologicals), 0.5% Glutamax (Invitrogen), 0.5% non-essential amino acids and 1% Antibiotic-Antimycotic (Invitrogen) with or without AA (ascorbic acid, Sigma, 0.2 mM) and BMP4 (R&D Systems, 10 ng/ml) for fibroblast reprogramming. Cells on a culture dish spontaneously aggregated as a patch-like CMT on day 10. In the case of no spontaneous formation, the border of a culture dish was scratched and cells were lifted up with a pipette to expedite cell aggregation into a CMT.

Myh6 = assay: mRNA expression of Myh6 (aMHC) in treated MTTFs; assay type: cell-based, mouse; conditions: miRNA with AA and BMP4
Method: as §1
(§3) Mouse tail-tip fibroblasts (MTTFs) isolated from 1-4 month old transgenic mice carrying a GFP reporter driven by αMHC or human ubiquitin C (UBC) promoters were cultured in DMEM/F-12 (Invitrogen) containing 10% FBS (Atlanta Biologicals), 1% Glutamax (Invitrogen), 1% non-essential amino acids (Invitrogen) and 1% Antibiotic-Antimycotic (Invitrogen). αMHC-GFP transgenic mice were kindly given by Dr. Mark Sussman (San Diego State University) and UBC-GFP mice (C57BL/6-Tg(UBC-GFP)30Scha/J) were purchased from the Jackson Laboratory. After 3-5 passages, MTTFs were frozen until use. […]

[2] = system: mouse tail-tip fibroblasts (MTTFs); assay: Reprogramming of MTTFs with miRNA mimics alone: CM gene expression, ACTN2 immunocytochemistry; assay type: cell-based; conditions: miRNA mimic alone, without AA and BMP4
Text: The reprogramming potential of muscle-specific miRNA mimics, miR-1a-2-5p, miR-208a-3p, miR-208b-3p, miR-208b-5p, and miR-499-5p was investigated in mouse tail-tip fibroblasts (MTTFs). […] Immunocytochemistry confirmed expression of a CM marker sarcomeric α-actinin (ACTN2) in single miRNA transfected cells. However ACTN2 expression was diffuse, sarcomeric organization was poor and spontaneously contracting cells were not observed in any miRNA transfected MTTFs.
as §3

aMHC-GFP-MTTFs = assay: Quantification of GFP+ cells in aMHC-GFP reporter MTTFs; assay type: cell-based, mouse; conditions: for GFP expression (aMHC-GFP): agent alone
Method: as §1, §3

[3] = system: mouse tail-tip fibroblasts (MTTFs); assay: qRT-PCR of lineage markers at day 6 (vascular-lineage reprogramming); assay type: cell-based; conditions: protocol with AA and BMP4
Method: as §2, with “Cells on a culture dish spontaneously aggregated as a patch-like CMT on day 10. In the case of no spontaneous formation, the border of a culture dish was scratched and cells were lifted up with a pipette to expedite cell aggregation into a CMT.” left out

## miR-499-5p: synthetic miRNA mimic, Qiagen MSY0003482, 5′-UUAAGACUUGCAGUGAUGUUU-3′ (SEQ ID NO: 3) (listed as RNA, chemistry not given here; listed as Mus musculus)
[1]
  spontaneously contracting cells: appeared

## miR-1a-2-5p: synthetic miRNA mimic, Qiagen MSY0017047, 5′-ACAUACUUCUUUAUGUAGUACCCAUA-3′ (SEQ ID NO: 135) (chemistry not given here)
[1]
  spontaneously contracting cells: appeared
Myh6
  mRNA expression of Myh6: increased trend

## miR-208b-3p: synthetic miRNA mimic, Qiagen MSY0004939, 5′-AUAAGACGAACAAAAGGUUUGU-3′ (SEQ ID NO: 1) (listed as RNA, chemistry not given here; listed as Mus musculus)
[2]
  expression of CM genes Mef2c, Nkx2-5, Gata4 and Myh6: most effective
[1]
  spontaneously contracting cells: appeared
aMHC-GFP-MTTFs; miRNA in combination with AA and BMP4
  GFP expression (aMHC-GFP-positive cells) of MTTFs: 22.0±2.6%
Myh6
  mRNA expression of Myh6: significantly increased
[3]
  expression of EC and SMC genes (qRT-PCR): increased expression

## miR-208a-3p: synthetic miRNA mimic, Qiagen MSY0000520, 5′-AUAAGACGAGCAAAAAGCUUGU-3′ (SEQ ID NO: 136) (chemistry not given here)
[1]
  spontaneously contracting cells: not

## O=C1O[C@H]([C@@H](O)CO)C(O)=C1O [AA, (R)-5-((S)-1,2-dihydroxyethyl)-3,4-dihydroxyfuran-2(5H)-one, reference compound]
aMHC-GFP-MTTFs
  GFP expression (aMHC-GFP): did not induce GFP expression

## miR-208b-5p: synthetic miRNA mimic, Qiagen MSY0017280, 5′-AAGCUUUUUGCUCGCGUUAUGU-3′ (SEQ ID NO: 137) (chemistry not given here)
[1]
  spontaneously contracting cells: not

B1: BMP4: secreted disulfide-linked homodimeric BMP-4, a TGF-beta superfamily ligand (R&D Systems) (protein, listed as Homo sapiens)
chain: SPKHHPQRSRKKNKNCRRHSLYVDFSDVGWNDWIVAPPGYQAFYCHGDCPFPLADHLNSTNHAIVQTLVNSVNSSIPKACCVPTELSAISMLYLDEYDKVVLKNYQEMVVEGCGCR
modifications: homodimer
aMHC-GFP-MTTFs
  GFP expression (aMHC-GFP): did not induce GFP expression
